Source: US20080081781A1, “Methods and compositions for the treatment of metabolic syndrome” (priority 2004, published 2008)

Legend:
LDLR = assay: Hamster liver LDLR mRNA and protein expression (real-time RT-PCR, western blot); format: in vivo, Chinese hamster; conditions: 100 mg/kg/day of berberine, end of treatment
Procedure: Two weeks prior to treatment, female Chinese hamsters purchased from the National Institute of Vaccine and Serum research (Beijing, China) were switched to a high fat and cholesterol diet (10% lard, 10% egg yolk powder and 1% cholesterol). After two weeks, groups of 14 hamsters were given either 10 mg/kg/day of berberine through peritoneal injection, 20 mg/kg/day of berberine through peritoneal injection, 50 mg/kg/day, 100 mg/kg/day of berberine orally or saline for ten days. Serum cholesterol, triglyceride and LDL levels were measured after 4 h fasting before, during and after the course of the treatment. Four hours after the course of the treatment, the animals were sacrificed and their livers removed for analysis.
At the end of treatment, three animals from each group were killed and liver LDLR mRNA and protein expressions were examined by quantitative real-time RT-PCR and western blot analysis. For the real-time RT-PCR, reverse transcription with random primers using Superscript II at 42° C. for 30 minutes with 1 μg of total RNA was performed using the ABI Prism 7900-HT Sequence Detection System and Universal MasterMix (Applied Biosystems, Foster City, Calif.). LDLR and GAPD mRNA expression levels were determined using the human LDLR and GAPD Pre-developed TaqMan Assay Reagents (Applied Biosystems).

[1] = Excretion of berberine in rats (urine, fecal matter, gall bladder secretions); format: in vivo, rat; conditions: rat, in vivo, iv
Procedure: In a final series of animal model studies, rats were orally administered 3H-berberine. Forty-eight hours after administration, excretions were tested for the presence of berberine. 2.7% of the oral dose was measured in the urine and 86% of the oral dose was measured in the fecal matter.
Rats received intravenous berberine (9.25 MBq/kg). Six days accumulation of rat urine and fecal secretions were measured for the presence of berberine. 73% of the intravenous dose of the berberine was found in the accumulated urine in both metabolized and unmetabolized forms. 10.9% of the intravenous dose was found in the fecal matter.
Three rats were given berberine (9.25 MBq/kg) intravenously. After 24 hours, gall bladder secretions were collected and evaluated for the presence of berberine. There was 10.1±0.9% (x±SD, n=3) of berberine in the gall bladder secretions.

InsR = InsR expression on peripheral blood lymphocytes of patients (flow cytometry); format: in vivo, human; conditions: patients after two months of berberine
From the text: Peripheral blood lymphocytes (PBL) were collected for InsR expression analysis. InsR protein expressed on the surface of peripheral blood lymphocytes were stained with monoclonal antibody against human insulin receptor (Pharmagen, San Diego, Calif.) and analyzed in a flow cytometer (BD and Company, San Jose, Calif.)

LDLR mRNA [2] = assay: Screen of 700 compounds from Chinese herbs for LDLR mRNA in HepG2 cells (semi-quantitative RT-PCR); format: cell-based, human; conditions: HepG2, 24 hours
Procedure: In exemplary experiments, cells from a human hepatoma-derived cell line, HepG2, were treated for 24 hours with 700 compounds isolated from Chinese herbs. RNA was then isolated from the cells and analysis of LDLR mRNA was determined using semi-quantitative RT-PCR assays. […] Treating HepG2 cells cultured in medium containing 0.5% lipoprotein-depleted fetal bovine serum or serum supplemented with sterols and berberine caused time dependent increases in the expression of LDLR mRNA.

LDLR mRNA [3] = assay: LDLR mRNA stability after actinomycin D in HepG2 cells (Northern blot); format: cell-based, human; conditions: HepG2, berberine 15 hours then actinomycin D 5 μg/ml
Procedure: HepG2 cells were cultured and then left alone or treated with berberine for 15 hours. After 15 hours, actinomycin D (5 μg/ml) was added to cells at 0, 20, 40, 60, 90, 120, or 150 minutes. Total mRNA was isolated and analyzed by Northern blot for the amount of LDLR mRNA. […] In contrast, the mRNA stability of HMG-CoA reductase was not altered by berberine.

[4] = Toxicity analysis (LD50) in rats; conditions: rat, in vivo
Procedure: Rats and mice were administered berberine through a variety of techniques, including orally, through subcutaneous injection, peritoneal injection and intravenous injection.

in vivo [5] = conditions: beagle, dog, iv, 100 mg/kg
Procedure: Four beagles were injected intravenously with 100 mg/kg of berberine. Using a two compartment model, the pharmacokinetic parameter estimates were as follows: […]

in vivo [6] = assay: in vivo; set-up: species or system canine (beagle); conditions: beagle, dog
Procedure: In parallel animal model studies, four canine (beagle) subjects were given 45 mg/kg of berberine orally. Serum concentrations of the drug were determined by HPLC at 2 and 3 hours after administration. […] After the berberine had cleared the system, the same dog was then administered 700 mg/kg of berberine and blood samples were taken 2, 3, 5, 7, 9 and 24 hours after administration resulting in concentrations of 21.51, 44.89, 49.54, 36.35, 27.83, and 16.01 ηg/ml respectively.

PKC = PKC activity in rat liver (PepTag assay); format: in vivo; conditions: berberine treated rats
Procedure: The livers were dissected and stored in liquid nitrogen for RNA extraction, real-time RT-PCR and PKC activity assay. Total blood samples were also collected to assay fasting blood glucose and serum insulin levels. The insulin levels were analyzed using radio-immunoassay (Linco Research, St Charles, Mo.). The insulin sensitivity indexes (ISI) were calculated according to the formula: 10^4/(fasting serum insulin X fasting blood glucose) (Hanson, Am. J. Epidemiol. 15 1(2), 190-198 (2000)). The insulin level and ISI of normal rats were also determined for comparison. […] It also elevated the fasting blood glucose from 7 to 12.8 mmol/L (P<0.001).
PKC activity was analyzed using the PepTag® Assay for Non-Radioactive Detection of Protein Kinase-C or cAMP-Dependent Protein Kinase kit (Promega) according to the protocol. Briefly, after homogenization and partial purification, […] was mixed with 5 μl of PepTag® Cl peptide (specific substrate of PKC), 5 μl of reaction buffer and 5 μl of PKC activator solution in a 25 μl reaction system. […] They were transferred to a 96-well plate and quantified using densitometry according to the supplier's protocol. The catalytic activity of total PKC of a specific sample was expressed as pmol/min/mg, representing the number of picomoles of phosphate transferred to the substrate per minute per milligram of proteins of the sample.

**Q.** Which “increase in LDLR mRNA in hamster livers” value (LDLR) does the source give for `COc1ccc2cc3[n+](cc2c1OC)CCc1cc2c(cc1-3)OCO2` [berberine] here?
**A.** The value was 3.5 fold.

**Q.** What about the “increase in LDLR protein in hamster livers” value (LDLR) of the same molecule?
**A.** The value was 2.6 fold.

**Q.** What about the “intravenous dose found in accumulated urine (metabolized and unmetabolized forms)” value [1] of the same molecule?
**A.** The value was 73%.

**Q.** What about the “intravenous dose found in the fecal matter” value [1] of the same molecule?
**A.** The value was 10.9%.

**Q.** And the “% of PBL expressing InsR on the surface” value (InsR)?
**A.** The value was “significantly increased”.

**Q.** What about the “LDLR expression among 700 compounds tested” value (LDLR mRNA [2]) of the same molecule?
**A.** The value was “greatest increase in LDLR expression”.

**Q.** What about the “prolongation of turnover rate of LDLR transcript” value (LDLR mRNA [3]) of the same molecule?
**A.** The value was “approximately threefold”.

**Q.** And the LD50 ([4]; intraperitoneal, peritoneal injection)?
**A.** The LD50 was 138 to 146 mg/kg.

**Q.** What about the LD50 ([4]; intravenous injection) of the same molecule?
**A.** Its LD50 is 46.2 to 63.3 mg/kg.

**Q.** What about the LD50 ([4]; oral dose) of the same molecule?
**A.** The LD50 was over 15000 mg/kg.

**Q.** What about the LD50 ([4]; sc, subcutaneous injection) of the same molecule?
**A.** The LD50 was 7970 to 10700 mg/kg.

**Q.** What about the AUC (in vivo [5]) of the same molecule?
**A.** Its AUC is 1980 ± 1140 ng·h/mL.

**Q.** And the clearance (in vivo [5])?
**A.** Its clearance is 1010 mL/min.

**Q.** And the half-life (in vivo [5])?
**A.** The half-life was 12.6 ± 8.83 h.

**Q.** And the concentration at 2 hours (in vivo [6]; 280 mg/kg)?
**A.** The concentration at 2 hours was 31400 ng/mL.

**Q.** What about the serum concentration (in vivo [6]; 280 mg/kg, 3 hours) of the same molecule?
**A.** The serum concentration was 22.6 ηg.

**Q.** And the concentration at 2 hours (in vivo [6]; 700 mg/kg)?
**A.** The concentration at 2 hours was 21.5 ng/mL.

**Q.** What about the concentration at 3 hours (in vivo [6]; 700 mg/kg) of the same molecule?
**A.** Its concentration at 3 hours is 44.9 ng/mL.

**Q.** And the concentration at 5 hours (in vivo [6]; 700 mg/kg)?
**A.** Its concentration at 5 hours is 49.5 ng/mL.

**Q.** What about the concentration at 7 hours (in vivo [6]; 700 mg/kg) of the same molecule?
**A.** Its concentration at 7 hours is 36.4 ng/mL.

**Q.** What about the concentration at 9 hours (in vivo [6]; 700 mg/kg) of the same molecule?
**A.** Its concentration at 9 hours is 27.8 ng/mL.

**Q.** And the concentration at 24 hours (in vivo [6]; 700 mg/kg)?
**A.** Its concentration at 24 hours is 16 ng/mL.

**Q.** And the “activity of PKC in the livers” value (PKC)?
**A.** The value was “increased activity of PKC”.
